In brackets after ≈: the same amount, converted by molar mass.
Columns and labels:
[1] = biological target: α-glucosidase; assay: α-Glucosidase assay (p-NPG substrate); assay type: biochemical
Description: α-Glucosidase assay. The substrates p-nitrophenyl α-glucopyranoside (p-NPG) and α-glucosidase were purchased from Sigma (St. Louis, USA). […] The standard assay protocol established by the Enzyme Inhibition Laboratory was adopted with minor modifications. First, 0.85 units/mL enzyme and 0.7mM of substrate were used for the initial screening of the fungal extracts, and 100mM sodium phosphate buffer containing 50 mM NaCl was prepared in deionized water (pH 6.8). The change in the absorbance was monitored initially before incubation and 30 min after the addition of p-NPG substrate. Percentage inhibition of enzyme by various test compounds was calculated using the formula: % inhibition= (ABS of Blank −ABS of Sample)/ABS of Blank× 100

[2] = biological target: T1, porcine lipase (Sus scrofa, UniProt P00591); assay: Pancreatic lipase assay (p-nitrophenyl butyrate hydrolysis); assay type: biochemical; conditions: for IC50: p-nitrophenyl butyrate substrate
T1 sequence (P00591 1-450): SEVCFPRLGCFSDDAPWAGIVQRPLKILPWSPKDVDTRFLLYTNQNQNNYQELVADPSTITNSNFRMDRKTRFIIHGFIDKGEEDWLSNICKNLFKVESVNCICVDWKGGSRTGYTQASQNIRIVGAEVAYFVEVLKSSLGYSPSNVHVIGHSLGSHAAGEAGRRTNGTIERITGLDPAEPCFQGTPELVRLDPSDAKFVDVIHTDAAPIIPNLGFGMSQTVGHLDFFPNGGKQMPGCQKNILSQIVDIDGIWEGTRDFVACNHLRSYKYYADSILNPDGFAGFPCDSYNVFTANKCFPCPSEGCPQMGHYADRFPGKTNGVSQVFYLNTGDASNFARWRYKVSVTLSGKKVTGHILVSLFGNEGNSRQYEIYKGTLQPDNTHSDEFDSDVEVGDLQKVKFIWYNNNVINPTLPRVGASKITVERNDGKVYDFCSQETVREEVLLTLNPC
Description: Pancreatic Lipase Assay. […] Thirty five microliters of each test compound in DMSO, 15 µL of pancreatic lipase enzyme (1 mg/mL buffer), and 45 µL Tris-HCl buffer (2.5 mmol Tris, pH = 7.4 and 2.5 mmol NaCl) were mixed in a 96 well microtiter plate and incubated at 25 °C for 15 min. The enzymatic hydrolysis was started upon the addition of 15 µL p-nitrophenyl butyrate (p-NPB). The number of p-nitrophenolate ions generated by the reaction was monitored using microplate reader, measured before incubation and 30 min after the addition of the substrate with corresponding change in absorbance at 405 nm.

[3] = system: mouse fibroblast (L929) cells; assay: Cytotoxicity assessment vs. L929; assay type: cell-based
Description: (§1) To verify the predicted toxicity of compounds 1–3, a cytotoxicity assessment (Table 4) was performed against mouse fibroblast (L929) and HeLa (KB3.1) cells, as previously reported.
(§2) The cytotoxic effects of the compounds were evaluated using a standard procedure.

[4] = system: HeLa (KB3.1) cells; assay: Cytotoxicity assessment vs. KB3.1; assay type: cell-based; conditions: Homo sapiens, KB 3-1
Description: as §1, §2

[5] = design: method as in PMID 21923104; conditions: previously shown; cited from earlier work

SMILES	IC50 [1] [µM]	IC50 [2] [µM]	IC50 [3] [µg/mL]	IC50 [4] [µg/mL]	times more potent than orlistat (lipase inhibition) ([2]; relative to positive control orlistat) [times]	antimicrobial activities [5]
Cc1cc(O)c2c3c(c(O)c4c(c13)O[C@@H](C)C4(C)C)C(=O)C(=O)O2 [Compound 1, scleroderolide]	48.7	3.4	15 (≈ 45.7 µM)	21 (≈ 64 µM)		
Cc1cc(O)c2c3c(c(O)c4c(c13)O[C@@H](C)C4(C)C)C(=O)C2=O [Compound 2, sclerodione]	120	1	27 (≈ 86.4 µM)	18 (≈ 57.6 µM)	9	moderate
Cc1cc(O)cc2c1C1=C(C(=O)C2=O)C(C)(C)[C@H](C)O1 [Compound 3, trypethelone]	> 100	> 100	2.7 (≈ 9.92 µM)	4.2 (≈ 15.4 µM)		
C/C(=C\c1csc(C)n1)[C@@H]1C[C@@H]2O[C@]2(C)CCC[C@H](C)[C@H](O)[C@@H](C)C(=O)C(C)(C)[C@@H](O)CC(=O)O1 [Epothilone B, reference compound]			0.0009 (≈ 0.00177 µM)	4e-05 (≈ 7.88e-05 µM)		

Source: publication PMC7070682, “Alpha-Glucosidase- and Lipase-Inhibitory Phenalenones from a New Species of Pseudolophiostoma Originating from Thailand” (Molecules, 2020)
